Measurements taken from patent US20260257993A1, “COMPOUND, RUBBER BLEND CONTAINING THE COMPOUND, VEHICLE TIRE COMPRISING THE RUBBER BLEND IN AT LEAST ONE COMPONENT, PROCESS FOR PRODUCING THE COMPOUND, AND USE OF THE COMPOUND AS AN AGEING PROTECTANT AND/OR ANTIOZONANT AND/OR DYE” (Continental Reifen Deutschland GmbH, priority 2021, published 2026).

Experiment: Measurement of oxidation induction time (OIT) by DSC
Settings: with liquid polyisoprene LIR-50, isothermal 180° C., O2 atmosphere 50 mL/min, DSC peak
Method: The compounds of formula II) and III) were investigated under laboratory conditions for their potential protective effect as aging stabilizers by measurement of the oxidation induction time.
To this end the compounds of formula II) and III) and 6-PPD in each case together with a polymer (liquid synthetic polyisoprene (IR), LIR-50, Kuraray, weight average molecular weight distribution Mw=54 000 g/mol, glass transition temperature Tg=−63° C.) were heated at constant temperature (180° C.) until onset of oxidation (start temperature 35° C., heating to 170° C. at a heating rate of 20 K/min (kelvin per minute), heating to 180° C. at a heating rate of 1 K/min; purge gas: nitrogen (N2), volume flow 50 mL/min). The specimen was isothermally maintained for 5 minutes at 180° C. under an N2 atmosphere and the atmosphere was then switched to an 02 atmosphere (volume flow 50 mL/min).
Oxidation was determined via a peak using DSC (differential scanning calorimetry).
The time in minutes to oxidation was measured.

| SMILES | Oxidation induction time: time to oxidation |
| --- | --- |
| CC(C)CC(C)Nc1ccc(Nc2ccccc2)cc1 (stereo not drawn) [6-PPD, N-(1,3-dimethylbutyl)-N′-phenyl-p-phenylenediamine, reference compound] | 116 ± 10 min |
| CC(C)CC(C)Nc1ccc2[nH]c(-c3ccccc3)cc2c1 (stereo not drawn) [formula II), 2-phenyl-5-(1,3-dimethylbutylamino)-1H-indole] | 105 ± 10 min |
| CC(C)CC(C)Nc1ccc2[nH]c(C3CCCCC3)cc2c1 (stereo not drawn) [formula III), 2-cyclohexyl-5-(1,3-dimethylbutylamino)-1H-indole] | 205 ± 10 min |
